{
  "source": "paper PMC3335078",
  "about": "“Length and Amino Acid Sequence of Peptides Substituted for the 5-HT3A Receptor M3M4 Loop May Affect Channel Expression and Desensitization” (PLoS ONE, 2012)",
  "key": {"[1]": {"molecular_target": "T1, 5-HT3A-A6 (M3M4 loop replaced by six alanines) (Mus musculus, UniProt P23979)", "T1 sequence (P23979 with tags, fused parts or gaps isoform P23979-2 limits assumed)": "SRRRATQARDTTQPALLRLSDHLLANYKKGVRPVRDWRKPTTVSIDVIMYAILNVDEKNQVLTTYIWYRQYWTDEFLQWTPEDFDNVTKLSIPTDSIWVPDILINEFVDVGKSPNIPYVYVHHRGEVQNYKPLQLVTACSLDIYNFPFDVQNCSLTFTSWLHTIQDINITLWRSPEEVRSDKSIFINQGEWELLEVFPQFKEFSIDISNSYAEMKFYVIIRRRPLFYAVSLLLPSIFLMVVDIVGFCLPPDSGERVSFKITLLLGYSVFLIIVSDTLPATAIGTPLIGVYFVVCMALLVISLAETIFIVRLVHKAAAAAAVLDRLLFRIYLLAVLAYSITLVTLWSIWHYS", "source_text": "(§1) The mouse 5-HT3A cDNA with an N-terminal V5 epitope tag was cloned into the pXOON vector as previously described, and is referred to in this paper as “wild-type” (WT). The starting construct for all of the M3M4 loop replacement constructs used in this work was the 5-HT3A-ΔM3M4 construct formed by splicing the cytoplasmic end of M3 (M3-LVHK/QDLQRP…) to the cytoplasmic end of M4 (…WLRVGY/VLDRLL-M4). The splice was made at the site of the “/” to yield the sequence M3-LVHK/VLDRLL-M4 [34]. This removed 115 residues predicted to form the M3M4 loop.\n(§2) The construction of the 5-HT3A-glvM3M4 chimera with the 5-HT3A M3M4 loop replaced by the GLIC heptapeptide M3M4 loop (SQPARAA) was described previously. Point mutations, alanine and Gly-Ser-Ala insertions into the 5-HT3A-ΔM3M4 construct were generated with the Quikchange site directed mutagenesis procedure (Stratagene, La Jolla, CA). The entire coding region of all mutant constructs was verified by DNA sequencing (Albert Einstein College of Medicine DNA Sequencing Facility). The pXOON plasmid was linearized using NheI and capped mRNA prepared with T7 RNA polymerase (mMessage mMachine, Ambion, Austin, TX).\n(§3) Use of Xenopus laevis in this study was carried out in strict accordance with the recommendations in the Guide for the Care and Use of Laboratory Animals of the National Institutes of Health. The protocol was approved by the Albert Einstein College of Medicine Animal Care and Use Committee (Protocol Number: 20081201). All surgery was performed under tricaine anesthesia, and all efforts were made to minimize suffering. Oocyctes were harvested from Xenopus (Nasco Science, Fort Atkinson, WI) anesthetized with 0.15% tricaine. Oocyctes were defolliculated by incubation in 2 mg ml^−1 Type 1A collagenase (Sigma-Aldrich, St. Louis, MO) in OR2 (85 mM NaCl, 2 mM KCl, 1 mM MgCl2, and 5 mM HEPES; pH adjusted to 7.5 with NaOH) for a 60 or 75 min. Oocytes were washed in OR2 and stored at 16°C in SOS medium: 100 mM NaCl, 2 mM KCl, 1 mM MgCl2, 1.8 mM CaCl2 5 mM HEPES, pH 7.5 with 100 IU ml^−1 penicillin, 100 µg ml^−1 streptomycin, and 250 ng ml^−1 amphotericin B (Invitrogen, Carlsbad, CA) and 5% horse serum (Sigma-Aldrich). 24 hrs following isolation, oocyctes were injected with 23 nl (2.3 ng) of mRNA and were kept in SOS media for 2–5 d at 16°C.\n(§4) Currents were recorded under two-electrode voltage clamp from oocytes 2–5 d post-injection as described previously. […] The perfusion chamber volume was 200 µl. A 3 M KCl/agar bridge connected the ground electrode to the bath. The holding potential was maintained at −60 mV. […] Salts were purchased from Fisher Scientific (Hampton, NH) or Sigma-Aldrich.\n(§5) Desensitization rates were determined by fitting a single exponential decay function to the current data with Prism 4 software (GraphPad Software). Significant differences compared with wild-type were determined by a one-way ANOVA (p<0.05) using Dunnett's multiple comparison post-hoc test (p<0.05). […]"}, "[2]": {"molecular_target": "T2, 5-HT3A-A7 (M3M4 loop replaced by seven alanines) (Mus musculus, UniProt P23979)", "T2 sequence (P23979 with tags, fused parts or gaps isoform P23979-2 limits assumed)": "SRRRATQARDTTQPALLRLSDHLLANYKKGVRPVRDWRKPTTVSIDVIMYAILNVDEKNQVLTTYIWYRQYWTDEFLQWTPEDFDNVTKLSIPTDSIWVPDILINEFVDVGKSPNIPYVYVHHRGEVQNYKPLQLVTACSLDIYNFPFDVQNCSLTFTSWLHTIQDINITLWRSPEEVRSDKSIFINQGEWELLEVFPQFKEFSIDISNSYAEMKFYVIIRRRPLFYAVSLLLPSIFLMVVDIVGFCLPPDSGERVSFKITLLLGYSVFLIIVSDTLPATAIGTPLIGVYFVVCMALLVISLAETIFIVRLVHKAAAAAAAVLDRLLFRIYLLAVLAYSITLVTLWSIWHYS", "source_text": "as §1, §2, §3, §4, §5"}, "[3]": {"molecular_target": "T3, 5-HT3A-A5 (M3M4 loop replaced by five alanines) (Mus musculus, UniProt P23979)", "T3 construct": "expressed in transfected cells; host or cells: Xenopus laevis oocytes injected with mRNA", "T3 sequence (P23979 with tags, fused parts or gaps isoform P23979-2 limits assumed)": "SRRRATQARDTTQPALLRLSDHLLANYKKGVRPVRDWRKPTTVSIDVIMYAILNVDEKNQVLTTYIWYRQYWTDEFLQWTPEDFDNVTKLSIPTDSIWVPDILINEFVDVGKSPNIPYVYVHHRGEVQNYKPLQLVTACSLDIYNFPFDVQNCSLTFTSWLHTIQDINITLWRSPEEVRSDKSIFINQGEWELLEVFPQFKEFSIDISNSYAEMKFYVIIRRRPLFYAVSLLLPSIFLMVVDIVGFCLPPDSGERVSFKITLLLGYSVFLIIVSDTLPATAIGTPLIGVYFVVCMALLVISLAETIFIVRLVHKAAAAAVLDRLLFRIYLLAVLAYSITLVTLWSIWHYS", "assay": "Two-electrode voltage clamp, oocytes expressing 5-HT3A-A5", "type": "cell-based", "source_text": "as §1, §2\nUse of Xenopus laevis in this study was carried out in strict accordance with the recommendations in the Guide for the Care and Use of Laboratory Animals of the National Institutes of Health. The protocol was approved by the Albert Einstein College of Medicine Animal Care and Use Committee (Protocol Number: 20081201). All surgery was performed under tricaine anesthesia, and all efforts were made to minimize suffering. Oocyctes were harvested from Xenopus (Nasco Science, Fort Atkinson, WI) anesthetized with 0.15% tricaine. […]\n(§6) Currents were recorded under two-electrode voltage clamp from oocytes 2–5 d post-injection as described previously. […]\n(§7) Desensitization rates were determined by fitting a single exponential decay function to the current data with Prism 4 software (GraphPad Software). Significant differences compared with wild-type were determined by a one-way ANOVA (p<0.05) using Dunnett's multiple comparison post-hoc test (p<0.05). […]"}, "[4]": {"molecular_target": "T4, 5-HT3A M3M4 loop GSAGSA mutant (Mus musculus, UniProt P23979)", "T4 construct": "expressed in transfected cells; host or cells: Xenopus laevis oocytes injected with mRNA", "T4 sequence (P23979 with tags, fused parts or gaps isoform P23979-2 limits assumed, change not shown)": "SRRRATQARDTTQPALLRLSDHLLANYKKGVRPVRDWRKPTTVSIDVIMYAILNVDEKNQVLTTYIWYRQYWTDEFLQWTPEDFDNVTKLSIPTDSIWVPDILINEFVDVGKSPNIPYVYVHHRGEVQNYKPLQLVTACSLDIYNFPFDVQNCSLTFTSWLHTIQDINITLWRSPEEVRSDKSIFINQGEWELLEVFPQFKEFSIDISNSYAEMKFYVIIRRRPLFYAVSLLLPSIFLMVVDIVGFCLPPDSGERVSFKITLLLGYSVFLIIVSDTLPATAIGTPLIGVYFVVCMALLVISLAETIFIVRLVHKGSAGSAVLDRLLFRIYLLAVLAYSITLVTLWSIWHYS", "assay": "Two-electrode voltage clamp, oocytes expressing GSAGSA M3M4 mutant", "type": "cell-based", "settings": "10 µM 5-HT, Xenopus oocytes", "source_text": "as §1\n(§8) The construction of the 5-HT3A-glvM3M4 chimera with the 5-HT3A M3M4 loop replaced by the GLIC heptapeptide M3M4 loop (SQPARAA) was described previously. Point mutations, alanine and Gly-Ser-Ala insertions into the 5-HT3A-ΔM3M4 construct were generated with the Quikchange site directed mutagenesis procedure (Stratagene, La Jolla, CA). […]\nas §6, §7"}, "[5]": {"molecular_target": "T5, 5-HT3A M3M4 loop GSAGSAGSA mutant (Mus musculus, UniProt P23979)", "T5 construct": "expressed in transfected cells; host or cells: Xenopus laevis oocytes injected with mRNA", "T5 sequence (P23979 with tags, fused parts or gaps isoform P23979-2 limits assumed, change not shown)": "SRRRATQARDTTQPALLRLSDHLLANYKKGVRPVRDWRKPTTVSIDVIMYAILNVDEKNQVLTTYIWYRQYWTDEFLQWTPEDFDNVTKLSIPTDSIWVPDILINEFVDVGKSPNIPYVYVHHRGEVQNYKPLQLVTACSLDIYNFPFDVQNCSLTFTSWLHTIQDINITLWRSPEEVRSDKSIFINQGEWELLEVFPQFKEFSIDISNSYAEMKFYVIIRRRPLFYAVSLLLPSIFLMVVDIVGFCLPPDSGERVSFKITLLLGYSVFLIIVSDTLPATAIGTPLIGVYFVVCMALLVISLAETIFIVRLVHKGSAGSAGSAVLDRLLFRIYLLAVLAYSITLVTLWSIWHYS", "assay": "Two-electrode voltage clamp, oocytes expressing […] M3M4 mutant", "type": "cell-based", "settings": "Xenopus oocytes", "source_text": "as §1, §8, §6, §7"}, "[6]": {"molecular_target": "T6, 5-HT3A construct with single proline in place of the single alanine (Mus musculus, UniProt P23979, DELINS338-452P)", "T6 construct": "expressed in transfected cells; host or cells: Xenopus laevis oocytes injected with mRNA", "T6 sequence (P23979 with tags, fused parts or gaps isoform P23979-2 DELINS338-452P limits assumed)": "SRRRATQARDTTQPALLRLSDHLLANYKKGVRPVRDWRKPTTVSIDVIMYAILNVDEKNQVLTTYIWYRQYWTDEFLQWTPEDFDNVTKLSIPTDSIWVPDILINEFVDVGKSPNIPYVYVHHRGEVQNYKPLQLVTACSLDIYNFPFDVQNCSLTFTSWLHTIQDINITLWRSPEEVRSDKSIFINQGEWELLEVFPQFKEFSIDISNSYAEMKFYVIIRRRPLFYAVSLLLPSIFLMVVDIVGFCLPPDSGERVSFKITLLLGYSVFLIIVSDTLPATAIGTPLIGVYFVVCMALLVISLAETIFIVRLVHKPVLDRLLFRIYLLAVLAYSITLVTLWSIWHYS", "assay": "Two-electrode voltage clamp, oocytes expressing single proline loop construct", "type": "cell-based", "settings": "Xenopus oocytes, data not shown", "source_text": "as §1, §8, §6, §7"}, "[7]": {"settings": "10 µM 5-HT, Xenopus oocytes, -60 mV"}},
  "data": [
    {"compound": "NCCc1c[nH]c2ccc(O)cc12", "note": "[5-HT, 5-hydroxytryptamine]", "values": [
      {"measurement": "10–90% Activation rise time", "setting": "[1]; 10 µM 5-HT", "value": "1017 ± 23", "unit": "ms"},
      {"measurement": "Imax (peak current)", "setting": "[1]; [7]", "value": "6400±1100", "unit": "nA"},
      {"measurement": "Desensitization time constant τ", "setting": "[1]; prolonged 10 µM 5-HT", "value": "77 ± 6", "unit": "s"},
      {"measurement": "nH (Hill coefficient)", "setting": "[2]", "value": "3.7±0.8"},
      {"measurement": "10–90% Activation rise time", "setting": "[2]; 10 µM 5-HT", "value": "881 ± 110", "unit": "ms"},
      {"measurement": "Desensitization time constant τ", "setting": "[2]; prolonged 10 µM 5-HT", "value": "62 ± 4", "unit": "s"},
      {"measurement": "10–90% Activation rise time", "setting": "[3]; 10 µM 5-HT", "value": "797 ± 108", "unit": "ms"},
      {"measurement": "Imax (peak current)", "setting": "[3]; [7]", "value": "2500±500", "unit": "nA"},
      {"measurement": "Desensitization time constant τ", "setting": "[3]; prolonged 10 µM 5-HT, may be limited by solution exchange", "value": "6 ± 1", "unit": "s"},
      {"measurement": "5-HT induced current", "setting": "[4]", "value": "730±45", "unit": "nA"},
      {"measurement": "5-HT induced current", "setting": "[5]", "value": "no detectable currents"},
      {"measurement": "5-HT induced current", "setting": "[6]", "value": "neither construct generated any 5-HT induced currents"}
    ]}
  ]
}
